Experimental data from ChEMBL document CHEMBL5712891, “Inhibition of BET bromodomain-dependent XIAP and FLIP expression sensitizes KRAS-mutated NSCLC to pro-apoptotic agents” (Cell Death Dis, 2016).
Active and inactive are the calls of the source. The rule behind the calls is not given here.

Key:
NCI-H460 [1] = assay: Induction of cell cycle arrest in human NCI-H460 cells assessed as accumulation of cells at G2/M phase at 1 uM for 24 hrs by Click-iT EdU Alexa Fluor 647 flow cytometric assay kit analysis (reference value: 1%); type: functional
DV-90 [2] = assay: Induction of cell cycle arrest in human DV-90 cells assessed as accumulation of cells at S phase at 1 uM for 24 hrs by Click-iT EdU Alexa Fluor 647 flow cytometric assay kit analysis (reference value: 31%); type: functional
DV-90 [3] = assay: Induction of cell cycle arrest in human DV-90 cells assessed as accumulation of cells at S phase at 0.25 uM for 24 hrs by Click-iT EdU Alexa Fluor 647 flow cytometric assay kit analysis (reference value: 31%); type: functional
DV-90 [4] = assay: Induction of cell cycle arrest in human DV-90 cells assessed as accumulation of cells at S phase at 0.5 uM for 24 hrs by Click-iT EdU Alexa Fluor 647 flow cytometric assay kit analysis (reference value: 31%); type: functional
NCI-H460 [5] = assay: Induction of cell cycle arrest in human NCI-H460 cells assessed as accumulation of cells at G2/M phase at 0.5 uM for 24 hrs by Click-iT EdU Alexa Fluor 647 flow cytometric assay kit analysis (reference value: 1%); type: functional
NCI-H460 [6] = assay: Induction of cell cycle arrest in human NCI-H460 cells assessed as accumulation of cells at G2/M phase at 0.25 uM for 24 hrs by Click-iT EdU Alexa Fluor 647 flow cytometric assay kit analysis (reference value: 1%); type: functional
DV-90 [7] = assay: Induction of cell cycle arrest in human DV-90 cells assessed as accumulation of cells at S phase at 0.1 uM for 24 hrs by Click-iT EdU Alexa Fluor 647 flow cytometric assay kit analysis (reference value: 31%); type: functional
NCI-H460 [8] = assay: Induction of cell cycle arrest in human NCI-H460 cells assessed as accumulation of cells at G2/M phase at 0.1 uM for 24 hrs by Click-iT EdU Alexa Fluor 647 flow cytometric assay kit analysis (reference value: 1%); type: functional
NCI-H460 [9] = assay: Induction of cell cycle arrest in human NCI-H460 cells assessed as accumulation of cells at G0/G1 phase at 1 uM for 24 hrs by Click-iT EdU Alexa Fluor 647 flow cytometric assay kit analysis (reference value: 43%); type: functional
NCI-H460 [10] = assay: Induction of cell cycle arrest in human NCI-H460 cells assessed as accumulation of cells at S phase at 1 uM for 24 hrs by Click-iT EdU Alexa Fluor 647 flow cytometric assay kit analysis (reference value: 56%); type: functional
NCI-H460 [11] = assay: Induction of cell cycle arrest in human NCI-H460 cells assessed as accumulation of cells at S phase at 0.25 uM for 24 hrs by Click-iT EdU Alexa Fluor 647 flow cytometric assay kit analysis (reference value: 56%); type: functional
NCI-H460 [12] = assay: Induction of cell cycle arrest in human NCI-H460 cells assessed as accumulation of cells at G0/G1 phase at 0.25 uM for 24 hrs by Click-iT EdU Alexa Fluor 647 flow cytometric assay kit analysis (reference value: 43%); type: functional
NCI-H460 [13] = assay: Induction of cell cycle arrest in human NCI-H460 cells assessed as accumulation of cells at G0/G1 phase at 0.1 uM for 24 hrs by Click-iT EdU Alexa Fluor 647 flow cytometric assay kit analysis (reference value: 43%); type: functional
NCI-H460 [14] = assay: Induction of cell cycle arrest in human NCI-H460 cells assessed as accumulation of cells at S phase at 0.5 uM for 24 hrs by Click-iT EdU Alexa Fluor 647 flow cytometric assay kit analysis (reference value: 56%); type: functional
NCI-H460 [15] = assay: Induction of cell cycle arrest in human NCI-H460 cells assessed as accumulation of cells at G0/G1 phase at 0.5 uM for 24 hrs by Click-iT EdU Alexa Fluor 647 flow cytometric assay kit analysis (reference value: 43%); type: functional
NCI-H460 [16] = assay: Induction of cell cycle arrest in human NCI-H460 cells assessed as accumulation of cells at S phase at 0.1 uM for 24 hrs by Click-iT EdU Alexa Fluor 647 flow cytometric assay kit analysis (reference value: 56%); type: functional
[17] = Toxicity in SCID mouse xenografted with human NCI-H1373 cells assessed as body weight loss at 50 mg/kg, ip measured on after 15 days relative to control; type: organism-based; conditions: in vivo, 360 h, time 15 day
NCI-H1373 [18] = assay: Induction of cell cycle arrest in human NCI-H1373 cells assessed as accumulation of cells at G2/M phase at 0.25 uM for 24 hrs by Click-iT EdU Alexa Fluor 647 flow cytometric assay kit analysis (reference value: 13%); type: functional
NCI-H460 [19] = assay: Induction of apoptosis in human NCI-H460 cells assessed as necrotic cells at 0.5 uM for 24 hrs by annexin V-PI staining based flow cytometric analysis (reference value: 2.7%); type: functional
NCI-H1373 [20] = assay: Induction of cell cycle arrest in human NCI-H1373 cells assessed as accumulation of cells at G2/M phase at 0.5 uM for 24 hrs by Click-iT EdU Alexa Fluor 647 flow cytometric assay kit analysis (reference value: 13%); type: functional
NCI-H1373 [21] = assay: Downregulation of c-MYC protein level in human NCI-H1373 cells 1 uM by Western blot analysis; type: functional, cell-based; conditions: time <= 24.0 hrs, TDE = time-dependent effect
NCI-H1373 [22] = assay: Induction of TRAIL dependent apoptosis in human NCI-H1373 cells assessed as viable cells at 1 uM in presence of […] by annexin V-PI staining based flow cytometric analysis (reference value: 87.6%); type: functional; conditions: read-out: Activity
NCI-H1373 [23] = assay: Downregulation of c-MYC mRNA expression level in human NCI-H1373 cells at 0.1 to 1 uM for 24 hrs by qRT-PCR analysis; type: functional, cell-based; conditions: dose 0.1-1 µM
A549 [24] = assay: Induction of cell cycle arrest in human A549 cells assessed as accumulation of cells at G2/M phase at 1 uM for 24 hrs by Click-iT EdU Alexa Fluor 647 flow cytometric assay kit analysis (reference value: 3%); type: functional
NCI-H1373 [25] = assay: Downregulation of FLIP mRNA expression level in human NCI-H1373 cells at 0.1 to 1 uM for 24 hrs by qRT-PCR analysis; type: functional, cell-based; conditions: dose 0.1-1 µM
NCI-H2347 = assay: Downregulation of c-MYC protein expression level in human NCI-H2347 cells at 1 uM for 24 hrs by […] analysis; type: functional, cell-based
A549 [26] = assay: Antiproliferative activity against human A549 cells at 500 to 2500 nM in presence of TNF by cell titre glo assay; type: functional, cell-based; conditions: dose 500-2500 nM
NCI-H1373 [27] = assay: Antitumor activity against human NCI-H1373 cells xenografted in SCID mouse assessed as tumor weight ratio to control at 50 mg/kg, ip measured on after 15 days relative to control; type: functional; conditions: time 15 day
DV-90 [28] = assay: Induction of cell cycle arrest in human DV-90 cells assessed as accumulation of cells at G2/M phase at 0.25 uM for 24 hrs by Click-iT EdU Alexa Fluor 647 flow cytometric assay kit analysis (reference value: 24%); type: functional
NCI-H460 [29] = assay: Downregulation of XIAP mRNA expression level in human NCI-H460 cells at 0.1 to 1 uM for 24 hrs by qRT-PCR analysis; type: functional, cell-based; conditions: dose 0.1-1 µM

SMILES	Activity (NCI-H460 [1])	Activity (DV-90 [2])	Activity (DV-90 [3])	Activity (DV-90 [4])	Activity (NCI-H460 [5])	Activity (NCI-H460 [6])	Activity (DV-90 [7])	Activity (NCI-H460 [8])	Activity (NCI-H460 [9])	Activity (NCI-H460 [10])	Activity (NCI-H460 [11])	Activity (NCI-H460 [12])	Activity (NCI-H460 [13])	Activity (NCI-H460 [14])	Activity (NCI-H460 [15])	Activity (NCI-H460 [16])	also measured
Cc1sc2c(c1C)C(c1ccc(Cl)cc1)=N[C@@H](CC(=O)Nc1ccc(O)cc1)c1nnc(C)n1-2 [BIRABRESIB]	1%	17%	21%	17%	3%	1%	20%	1%	–	–	–	–	–	–	–	–	–
CCNC(=O)C[C@@H]1N=C(c2ccc(Cl)cc2)c2cc(OC)ccc2-n2c(C)nnc21 [MOLIBRESIB]	1%	–	–	–	1%	1%	–	1%	51%	47%	54%	45%	46%	49%	49%	53%	–
Cc1sc2c(c1C)C(c1ccc(Cl)cc1)=N[C@@H](CC(=O)OC(C)(C)C)c1nnc(C)n1-2	1%	15%	24%	18%	1%	1%	27%	1%	45%	54%	57%	41%	44%	54%	45%	55%	Activity [17]: 5%; Activity (NCI-H1373 [18]): 16%; Activity (NCI-H460 [19]): 4%; Activity (NCI-H1373 [20]): 22%; Activity (NCI-H1373 [21]): Tde; viability at 1 µM (NCI-H1373 [22]): 17.8%; Activity (NCI-H1373 [23]): Active; Activity (A549 [24]): 4%; Activity (NCI-H1373 [25]): Active; Activity (NCI-H2347): Active; Activity (A549 [26]): Active; T/C (NCI-H1373 [27]): 32%; Activity (DV-90 [28]): 31%; Activity (NCI-H460 [29]): Active
